One assay relates to Salsola komarovii. Put plainly: Seed germination, short-time and continuous treatment (Experiment 2). To be noted: for germination rate: immersed in 1% solution for 24 hours, in the end, DW 28%. The assay is classed as in vivo. On the procedure: In order to clarify an effect of a short-time treatment, 50 seeds of Salsola komarovii, tomato (Home Momotaro) and sunny lettuce (Red Wave), and 20 seeds of morning glory (Tairin Zaki Kongo) were immersed in any of deionized water, 1% D-psicose, 1% D-allose and 1% L-galactose for 24 hours (25° C., dark), respectively, then, they were lightly washed with deionized water. Then, the seeds were sown in a dish with a diameter of 9 cm having a filter paper placed therein, and germinated under the same condition by poring 5 to 10 ml of deionized water therein. Further, for the comparison, a continuous treatment with 1% D-psicose was carried out in accordance with the same procedure.

Assay [1] deals with Fusarium oxysporum, Glomerella cingulata, Verticillium dahliae and Botrytlis cinerea. Put plainly: Mycelial elongation of plant pathogenic bacteria on agar with rare sugar. The assay is classed as cell-based. The following applies: 0.05% (w/v) in agar medium, 23° C., 7 days. The procedure:
By using as targets, Fusarium oxysporum, Glomerella cingulata, Verticillium dahliae and Botrytlis cinerea, which are typical plant pathogenic bacteria, an effect of a rare sugar on mycelial elongation was examined.
As the test bacterial strains, IFO 31213 strain, IFO 6425 strain, IFO 9765 strain and IFO 9760 strain were used.
After the cultivation, the length of the extending mycelium was measured.

The test system of assay [2] is cherry tomato plant “mini carol”. The assay is described as follows: Hydroponic growth of cherry tomato with 0.05 or 0.5 mM sugar, 10 days. The assay is classed as in vivo. The procedure: Subsequently, a cherry tomato plant “mini carol” was transplanted for permanent planting to a hydroponic apparatus, and a total of 7 treated plots in which a plot without addition (control plot) was added to 6 treated plots with the use of a nutrient solution supplemented with 0.05 mM or 0.5 mM D-psicose, D-fructose or mannitol were prepared. A survey was carried out with regard to the growth at 10 days after the permanent planting. […] The stem diameter was the smallest in the case of 0.5 mM D-psicose. The number of leaves was the smallest in the case of 0.5 mM D-psicose and 0.5 mM mannitol. The root length was the smallest in the case of 0.5 mM psicose.

Another assay has as its system Primula. Put plainly: Drying stress of Primula after foliar spraying. The assay is classed as in vivo. To be noted: foliar spraying of 0.2% (w/v) solution. The procedure: By using Primula, an effect of spraying D-psicose on a drying stress was examined. By using commercially available Primula planted in a pot, foliar spraying of water, a 0.2% (w/v) D-glucose solution or a 0.2% (w/v) D-psicose solution was carried out on the whole plant. After irrigation was sufficiently carried out from the lower part of the pot, the plant was left in a condition that no irrigation was carried out, and a wilted condition thereof was observed.

Assay [3] has as its system strawberry plant (variety: “smile ruby”). Put plainly: Growth of strawberry seedlings in tissue culture medium with sugar. To be noted: for Underground part weight / Number of lateral buds / Aerial part weight / Root length: 0.1% (w/v) in medium; for Underground part weight: without addition 0.5; for Number of lateral buds: without addition 0.6; for Aerial part weight: without addition 1.8; for Root length: without addition 8.7; for Plant length: 0.1% (w/v) in ½ strength MS medium, without addition 3.0. The assay is classed as in vivo. The procedure:
Seedlings of a strawberry plant (variety: “smile ruby”) obtained by meristem culture under sterile conditions were used in an experiment.
As for the strawberry, by using ½ strength MS medium supplemented with 0.1% (w/v) D-psicose or D-glucose, the seedling plants were aseptically transplanted on Oct. 14, 2003, and then, cultivation was carried out in a culture chamber at 25° C. and 5,000 Lux (12-hour day length). Then, on Jan. 20, 2004, a survey was carried out with regard to the growth conditions of aerial part and underground part, the number of lateral buds and the like.

Assay [4] has the same test system. The assay is described as follows: Foliar spraying of sugar on potted strawberry, fruit harvest. The assay is classed as in vivo. The following applies: 0.5% (w/v) sprayed three times weekly. On the procedure:
A strawberry plant (variety: “smile ruby”) was used in an experiment. The strawberry plants were planted in pots and from Feb. 13, 2004, while the cultivation was carried out in a glass house, water or a 0.5% (w/v) sugar solution was sprayed onto the whole plant on a three times weekly basis. As for the types of sugars, D-glucose and D-psicose were used and two pots were cultivated for each test plot. While the cultivation was continued, the number of fruits, the weight of fruits, the sugar content of fruits were measured with regard to the fruits that could be harvested by Mar. 25, 2004.

Assay [5] deals with Fusarium oxysporum IFO 31213 strain. Put plainly: Infection of treated tomato seeds on agar with Fusarium oxysporum. The assay is classed as in vivo, tomato plant (variety: “House Momotaro”). The procedure:
(§1) Therefore, by using a tomato plant and a strain of Fusarium oxysporum, which is a typical pathogenic bacterium of tomato, an effect of D-psicose during infection was examined.
(§2) To be more specific, seeds of a tomato plant (variety: “House Momotaro”) were subjected to an immersion treatment by immersing them in a D-psicose solution at a concentration of from 0.01% (w/v) to 0.1% (w/v) for 15 minutes while stirring slowly, followed by air-drying on sterile gauze, and then used as treated seeds. At the center of a plastic dish with a diameter of 9 cm filled with 25 ml of 1% (w/v) agar, a mycelial disc (diameter: 1 cm) obtained by pushing out Fusarium oxysporum (IFO 9967 strain and IFO 31213 strain) cultured for 1 week on a potato dextrose agar medium using a cork borer along with the agar medium was placed, and 10 seeds of the above treated seeds were placed equally spaced around the disc. At this time, test plots in which D-psicose was added to the agar medium at a concentration of from 0.01% (w/v) to 0.1% (w/v) were prepared. Then, the dishes were placed at 23° C. under the dark condition for 7 days to 10 days, and observation was carried out with regard to the elongation of shoot, the elongation of root, the shoot development rate, the infection state in root and the like.

For assay [6], the system named is Fusarium oxysporum IFO 9967 strain. Described as above. The assay is classed as in vivo, tomato plant (variety: “House Momotaro”). The procedure:
as §1, §2

The mark [7] stands for this setting: D-psicose seed 0.01%, medium 0.01%.
The mark [8] stands for this setting: D-psicose seed 0.01%, medium non.
Where [9] appears, read: D-psicose seed 0.05%, medium 0.05%.
Setting [10] is: D-psicose seed 0.05%, medium non.
[11] abbreviates: D-psicose seed 0.10%, medium 0.10%.
Setting [12] is: D-psicose seed 0.10%, medium non.
Where [13] appears, read: seeds treated, and seeds treated plus agar medium.

The compound `O=C[C@H](O)[C@H](O)[C@H](O)[C@H](O)CO` [D-allose] came in with a germination rate in the assay with Salsola komarovii of 16%. In assay [1], the “inhibitory effect on mycelial elongation” value is reported as “has an effect on inhibiting mycelial elongation”.
As for `O=C(CO)[C@@H](O)[C@H](O)[C@H](O)CO` [D-fructose, reference compound], the “stem length, rank among 7 treated plots” value in assay [2] (0.5 mM) was “the longest”.
For the compound `O=C[C@H](O)[C@@H](O)[C@H](O)[C@H](O)CO` [D-glucose, reference compound], the “time until wilt of the whole plant without irrigation” value with Primula was “one day”. Also, in assay [3], the Underground part weight amounted to 1.2 g, the “Number of lateral buds” value is recorded as 1.0, the Aerial part weight is listed as 3.0 g and the Root length came to 8.7 cm. The Plant length in assay [3] came out at 4.3 cm.
As for `O=C(CO)[C@H](O)[C@H](O)[C@H](O)CO` [D-psicose], the germination entry in the assay with Salsola komarovii (continuous treatment with 1%) is “promoted”. The germination rate with Salsola komarovii stood at 28%. Also, the “average weight of fruits” value in assay [4] (increased from 13.5 g) amounted to 16.6 g. Moreover, the “number of fruits that could be harvested during the cultivation period” value in assay [4] (increased from 25) is 38. Also, the “total weight of fruits that could be harvested” value in assay [4] (increased from 337.8 g) is given as 630.3 g. The “stem length, rank among 7 treated plots” value in assay [2] (0.05 mM) is on record as “the second longest”; in assay [2] (0.5 mM), “the shortest”. The “fresh and dry aerial part weights, rank among 7 treated plots” value in assay [2] (0.5 mM) is “the smallest”. In assay [2] (0.5 mM), the “number of leaves, rank among 7 treated plots” value is recorded as “the smallest”. The “root length, rank among 7 treated plots” value in assay [2] (0.5 mM) is listed as “the smallest”. Also, the “stem diameter, rank among 7 treated plots” value in assay [2] (0.5 mM) is listed as “the smallest”. The “time until wilt of the whole plant without irrigation” value in the assay with Primula is 2 days. Besides, the “mycelial elongation of Fusarium oxysporum” value in assay [5] (D-psicose added to the agar medium) was “inhibited”. In addition, the Root length in assay [5] (setting [7]) worked out at 4.7 cm; in assay [5] (setting [8]), 3.9 cm; in assay [5] (setting [9]), 3.5 cm; in assay [5] (setting [10]), 3.8 cm; in assay [5] (setting [11]) it was 2.1 cm; in assay [5] (setting [12]), 3.2 cm. Further, the Root length in assay [6] (setting [7]) turned out to be 4.5 cm; in assay [6] (setting [8]), 4.1 cm; in assay [6] (setting [9]) it was 3.7 cm; in assay [6] (setting [10]) it was 3.3 cm; in assay [6] (setting [11]) it was 2.0 cm; in assay [6] (setting [12]), 3.7 cm. Moreover, the Root length in assay [3] came out at 7.2 cm. Besides, the Shoot length is 4.5 cm in assay [5] (setting [7]); 4.7 cm in assay [5] (setting [8]); 4.5 cm in assay [5] (setting [9]); 4.2 cm in assay [5] (setting [10]); 2.9 cm in assay [5] (setting [11]); 3.0 cm in assay [5] (setting [12]). The Shoot length in assay [6] (setting [7]) is 5.2 cm; in assay [6] (setting [8]), 5.1 cm; in assay [6] (setting [9]), 5.7 cm; in assay [6] (setting [10]) it was 3.4 cm; in assay [6] (setting [11]) it was 3.8 cm; in assay [6] (setting [12]), 4.3 cm. Further, the “browning caused by infection of roots with Fusarium oxysporum” value in assay [5] (setting [13]) and in assay [6] (setting [13]) was “reduction” throughout. Further, the shoot development rate entry in assay [5] (setting [13]) and in assay [6] (setting [13]) was “improvement” throughout. In assay [3], this compound showed an Underground part weight of 1.9 g. The “Number of lateral buds” value in assay [3] is given as 1.3. Further, the Aerial part weight in assay [3] came to 3.1 g. In assay [3], this compound returned a Plant length of 4.5 cm. In addition, the “inhibitory effect on mycelial elongation” value in assay [1] was “has an effect on inhibiting mycelial elongation”.

For the origin of these results see patent publication US8017828B2, “Utilization of rare sugars in plant or microorganism” (Shikoku Research Institute Incorporated, priority 2004, dated 2011).
